According to US20230310486A1, “CONJUGATED OLIGONUCLEOTIDE COMPOUNDS, METHODS OF MAKING AND USES THEREOF” (E-Therapeutics PLC, priority 2021, published 2023):
In the oligonucleotide strings, read from the 5' end, every base follows the letter of its sugar. An asterisk marks phosphorothioate; unmarked linkages are phosphodiester. Other units and linkages are bracketed, terminal groups are in braces. A string of capitals states the bases alone. {ET-GalNAc-T2CO} = code of the source, not defined here; {NH2C12} = code of the source, not defined here; {NHC6} = code of the source, not defined here; m = 2'-O-methyl; f = 2'-fluoro

Tested on: hsHAO1 mRNA
Assay: Dose-response of hsHAO1 targeting GalNAc-siRNAs in primary human hepatocytes, gymnotic free uptake, bDNA assay
Assay type: cell-based
Details: PHHs
Experimental: HepG2 cells were supplied by American Tissue Culture Collection (ATCC) (HB-8065, Lot #: 63176294) and cultured in ATCC-formulated Eagle's Minimum Essential Medium supplemented to contain 10% fetal calf serum (FCS). Primary human hepatocytes (PHHs) were sourced from Primacyt (Schwerin, Germany) (Lot #: CyHuf19009HEc). Cells are derived from a […] by explant technique. All cells used in this study were cultured at 37° C. in an atmosphere with 5% CO2 in a humidified incubator.
Dose response analysis in PHHs was done by direct incubation of cells in a gymnotic, free uptake setting starting with 1.5 μM highest final siRNA concentration, followed by 500 nM and from there on going serially down in twofold dilution steps.
Control wells were transfected into HepG2 cells or directly incubated with primary human hepatocytes at the highest test siRNA concentrations studied on the corresponding plate. All control siRNAs included in the different project phases next to mock treatment of cells are summarized and listed in Table 2. For each siRNA and control, at least four wells were transfected/directly incubated in parallel, and individual data points were collected from each well.
After 24 h of incubation with siRNA post-transfection, media was removed and HepG2 cells were lysed in Lysis Mixture (1 volume of lysis buffer plus 2 volumes of nuclease-free water) and then incubated at 53° C. for at least 45 minutes. In the case of PHHs, plating media was removed 5 h post treatment of cells followed by addition of 50 μl of complete maintenance medium per well. Media was exchanged in that way every 24 h up to a total incubation period of 72 h. At either 4 h or 72 h time point, cell culture supernatant was removed followed by addition of 200 μl of Lysis Mixture supplemented with 1:1000 v/v of Proteinase K.
The branched DNA (bDNA) assay was performed according to manufacturer's instructions. Luminescence was read using a 1420 Luminescence Counter (WALLAC VICTOR Light, Perkin Elmer, Rodgau-JMgesheim, Germany) following 30 minutes incubation in the presence of substrate in the dark. For each well, the on-target mRNA levels were normalized to the hsGAPDH mRNA levels. The activity of any siRNA was expressed as percent on-target mRNA concentration (normalized to hsGAPDH mRNA) in treated cells, relative to the mean on-target mRNA concentration (normalized to hsGAPDH mRNA) across control wells.
Following the identification of a suitable batch (CyHuf19009) of primary human hepatocytes (PHHs), a gymnotic, free uptake analysis was performed of hsHAO1 targeting GalNAc-siRNAs, listed in Table 1. The highest tested final siRNA concentration was 1.5 μM, followed by 500 nM, going down in eight two-fold serial dilution steps to the lowest final siRNA concentration of 1.95 nM. The experiments ended at 4 h and 72 h post direct incubation of PHH cells.

## ETX002: hsHAO1 GalNAc-siRNA, 5′-GalNAc T2b inverted abasic; sense X91409, antisense X38483; linker + ligand as FIG. 21 (sense GACUUUCAUCCUGGAAAUAUA; antisense UAUAUUUCCAGGAUGAAAGUCCA; 5'-GalNAc, inverted abasic, 2'-F/OMe, PS; misc_feature 1..21 modified siRNA; misc_feature 1..23 modified siRNA)
4 h incubation
  Max. Inhib.: 7.2%
72 h incubation
  IC20: 23.9 nM
  Max. Inhib.: 44.3%

## ECX008: hsHAO1 GalNAc-siRNA, 3′-GalNAc T2a alternating, same sequences as ETX008, lower purity (sense fG*mA*fCmUfUmUfCmAfUmCfCmUfGmGfAmAfAmUfAmUfA-{NHC6}-{ET-GalNAc-T2CO}; antisense mU*fA*mUfAmUfUmUfCmCfAmGfGmAfUmGfAmAfAmGfUmC*fC*mA; further chemistry not given here)
4 h incubation
  Max. Inhib.: 2.0%
72 h incubation
  IC20: 4.9 nM
  IC50: 260 nM
  Max. Inhib.: 58.1%

## ETX004: hsHAO1 GalNAc-siRNA, 5′-GalNAc T2b alternating; sense X91412, antisense X91398; linker + ligand as FIG. 21 (sense {ET-GalNAc-T2CO}-{NH2C12}-fGmAfCmUfUmUfCmAfUmCfCmUfGmGfAmAfAmUfA*mU*fA; antisense mU*fA*mUfAmUfUmUfCmCfAmGfGmAfUmGfAmAfAmGfUmC*fC*mA)
4 h incubation
  Max. Inhib.: −2.3%
72 h incubation
  IC20: 2.8 nM
  Max. Inhib.: 35.5%
